Assay results from US6025387A, “Gastroprotective flavone/flavanone compounds with therapeutic effect on inflammatory bowel disease” (Dong a Pharmaceutical Co., Ltd., priority 1996, dated 2000).
≈ marks a conversion by molar mass, not a printed value.

Key:
[1] = tested on: gastric mucosal damage induced by NSAIDs; details: NSAID-induced; cited from earlier work
[2] = tested on: gastric mucosa; details: U.S. Pat. No. 5,399,584; cited from earlier work
[3] = tested on: gastric mucosal damage induced by ethanolic HCl; test: Gastritis model induced with ethanolic-HCl; format: in vivo, SD male rat; details: po, 1 h, rat; for inhibition in vivo at 0.3 mg/kg: 0.3 mg/kg p.o.; for inhibition in vivo at 1 mg/kg: 1 mg/kg p.o.; for inhibition in vivo at 3 mg/kg: 3 mg/kg p.o.
Experimental: Effect on the Gastritis Model Induced with Ethanolic-HCl.
SD male rat(250-350 g) was fasted for 24 hours. The compound was orally administered in suspension of 5% HPMC, and after 1 hour 1.5 mL of 150 mM HCl-80% ethanol was orally administered. After 1 hour the rat was sacrifieced and the stomach was extracted and the ulcer index was measured. The ulcer index was shown by the area of hemorrhage lesion(Mizui, T, et al., Jpn. J. Pharmacol. 1983, 33: 939).

[4] = tested on: gastric mucus secretion; test: Measurement of gastric mucus; format: in vivo, SD male rat; details: oral, rat
Experimental: Measurement of Gastric Mucus
The compound was orally administered into SD male rat (200~250 g). After 1 hour the stomach was extracted. The extracted stomach was immediately washed with 10 mL of cold 0.25M sucrose solution. The gastric mucosa was dyed with 0.1% alcian blue solution for 2 hours. After dyeing, the gastric mucosa was washed with 0.25M sucrose solution twice for 15 minutes and for 45 minutes. The dyed gastric mucosa was treated with 10 mL of 30% dioctyl sodium sulfosuccinate solution for 2 hours to extract dyed mucus completely and optical density of aqueous phase was measured spectrophotometrically at 655 nm. The amount of mucus in the gastric mucosa was shown as the amount of alcian blue after calibration (Kitagawa, H., et al., Drug Res. 1986, 36: 1240-1244).

[5] = tested on: neutrophils; test: Luminol-dependent chemiluminescence of neutrophils induced by FMLP; format: cell-based; details: Neutrophil, 1 μM FMLP, 0.07 mM luminol; read-out: IC50, inhibition of chemiluminescence generated by neutrophil activation
Experimental: Measurement of luminol-dependent chemiluminescencei iof neutrophil induced by FMLP.
20 mL of 12% sodium caseinate-0.9% saline was administered intraperitoneally (Newsby, A. C., Biochem. J., 1980, 186: 907,. After 20 hours, the intraperitoneal exudate was extracted under ether anesthesia. The exudate was centrifuged, and erythrocytes were removed by hypotonic lysis, and then neutrophil was washed. Neutrophil was ascertained by Wright's dyeing method, and viability was measured by Trypan blue exclusion test. Chemiluminescence was measured by Topcount (Packard Co.). The suspension of 1.5×10^6 of granulocytes, 1 μM of FMLP, 0.07 mM of luminol and the compound in HBSS was used (Dahlgren, C., et al., Infect. Immun., 1985 47: 326-328).
**IC50 (μg/mL): Concentration of the compound at inhibiting
chemiluminescence generated by neutrophil activation to 50%

[6] = tested on: cyclooxygenase; test: Cyclooxygenase activity in HUVEC (PGF1 α synthesis); format: cell-based
Experimental: (§1) Measurment of Cyclooxygenase Actvity
(§2) After addition of the compound to cultured HUVEC, the HUVEC was incubated at 37° C., for 30 minutes, then arachidonic acid (final concentration: 30 .rho.M) was added, and the HUVEC was additionally incubated at 37° C. for 15 minutes. The culture medium was taken, and the activity of cyclooxygenase for 6-Keto-PGF1 α or PGE2 was measured by radioimmunoassay (Mitchell, J. A., et al., Pro. Natl. Acad. Sci. USA 1994, 90: 11693-11697).
**SC200 (ug/mL) : Concentration at increasing generation of […]

[7] = tested on: cyclooxygenase; test: Cyclooxygenase activity in HUVEC (PGE2 synthesis); format: cell-based
Experimental: as §1, §2
**SC200 (μg/mL) : Concentration at increasing generation of […]

[8] = target: T1, 5-lipoxygenase (Rattus norvegicus, UniProt P12527); test: 5-lipoxygenase activity (LTB4 in A23187-stimulated peritoneal neutrophils); format: cell-based
T1 construct: endogenous in cells; host or cells: casein-elicited rat peritoneal neutrophils
T1 sequence (P12527 1-673): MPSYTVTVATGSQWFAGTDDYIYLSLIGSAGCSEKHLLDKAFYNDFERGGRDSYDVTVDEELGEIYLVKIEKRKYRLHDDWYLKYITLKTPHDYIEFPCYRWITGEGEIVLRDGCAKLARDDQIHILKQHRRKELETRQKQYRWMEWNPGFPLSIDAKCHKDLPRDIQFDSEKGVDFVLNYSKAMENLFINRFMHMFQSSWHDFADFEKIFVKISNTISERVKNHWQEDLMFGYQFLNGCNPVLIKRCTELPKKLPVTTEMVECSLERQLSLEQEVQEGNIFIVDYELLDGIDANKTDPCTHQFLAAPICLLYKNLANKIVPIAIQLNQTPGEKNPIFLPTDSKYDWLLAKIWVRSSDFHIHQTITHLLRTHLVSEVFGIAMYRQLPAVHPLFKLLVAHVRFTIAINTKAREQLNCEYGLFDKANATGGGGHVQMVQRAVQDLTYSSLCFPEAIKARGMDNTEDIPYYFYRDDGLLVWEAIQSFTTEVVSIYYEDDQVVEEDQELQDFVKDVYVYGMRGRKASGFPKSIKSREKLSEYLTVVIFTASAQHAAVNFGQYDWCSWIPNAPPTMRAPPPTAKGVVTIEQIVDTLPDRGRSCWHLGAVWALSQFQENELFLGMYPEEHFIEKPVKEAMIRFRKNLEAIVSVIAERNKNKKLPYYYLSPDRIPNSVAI
Experimental: Measurement of 5-lipooxygenase Activity
Modified Safayhi et al.'s method (Safayhi, H., et al., Biochem. Pharmacol. 1985, 34: 2691) was used to this experiment. Peritoneal neutrophil was separated from the rat which was treated with casein solution. The compound was added to 10^7 cells (5×10^6 cells/mL, 2 mL) of neutrophil after 2 minutes Ca^2+ -ionophore, A23187 (1 μg/mL) was added and the mixture was incubared at 37° C. for 10 minutes. The reaction mixture was centrifuged and the supermatant was taken up. The amount of LTB4 in the supermatant was measured by radioimmunoassay.

[9] = tested on: leukocytes; details: cited from earlier work
[10] = tested on: gastritis and gastric ulcer; details: in vivo; cited from earlier work
[11] = tested on: gastric ulcer induced by NSAIDs; details: clinical; cited from earlier work
[12] = tested on: epidermal cells of mucous membrane in gastrointestinal tracts; details: cited from earlier work
[13] = tested on: experimental ulceration; details: various kinds of ulcerogens; cited from earlier work

In the case of catalase, the “reduction of gastric mucosal damage” value [1] is given as “significantly reduce the extent of gastric mucosal damage induced by NSAIDs”.
For `COc1cccc2oc(-c3ccc(F)cc3)cc(=O)c12` [4'-fluoro-5-methoxy flavone], the “protective effect on damage of gastric mucosa” value [2] is listed as “protective effect on the damage of gastric mucosa”.
In the case of `COc1ccc(-c2cc(=O)c3c(O)c(OC)c(O)cc3o2)cc1OC` [5,7-dihydroxy-3',4',6-trimethoxy flavone], the inhibition in vivo at 0.3 mg/kg [3] is reported as 58%, the inhibition in vivo at 1 mg/kg [3] is reported as 64% and the inhibition in vivo at 3 mg/kg [3] is reported as 80%. For the same compound, the “gastric mucus secretion, % Control” value ([4]; 0.3 mg/kg) was 132.2 % Control, the “gastric mucus secretion, % Control” value ([4]; 3 mg/kg) was 130.7 % Control and the “gastric mucus secretion, % Control” value ([4]; 30 mg/kg) was 116.8 % Control. The IC50 [5] was 0.463 µg/mL (≈ 1.34 µM), the “SC200, concentration increasing generation of PGF1α to 200%” value [6] was 3.4 µg/mL and the “SC200, concentration increasing generation of PGE2 to 200%” value [7] was 2.4 µg/mL. The IC50 [8] was 13.1 µM.
In the case of `COc1ccc2c(c1)c(CC(=O)O)c(C)n2C(=O)c1ccc(Cl)cc1` [indomethacin], the “leukocyte adherence to vascular endothelium” value [9] is listed as “induce adherence of leukocytes to the vascular endothelium”.
`COc1ccc(-c2cc(=O)c3c(OC)c(OC)c(OCC(=O)O)cc3o2)cc1OC` [7-carboxymethyloxy-3',4',5,6-tetramethoxy flavone] showed an inhibition in vivo at 0.3 mg/kg [3] of 54%, an inhibition in vivo at 1 mg/kg [3] of 77% and an inhibition in vivo at 3 mg/kg [3] of 84%. The “gastric mucus secretion, % Control” value ([4]; 0.3 mg/kg) was 120 % Control, the “gastric mucus secretion, % Control” value ([4]; 3 mg/kg) was 130 % Control and the “gastric mucus secretion, % Control” value ([4]; 30 mg/kg) was 139 % Control. For the same compound, the IC50 [5] was 1.57 µg/mL (≈ 3.77 µM), the “SC200, concentration increasing generation of PGF1α to 200%” value [6] was 11.09 µg/mL and the “SC200, concentration increasing generation of PGE2 to 200%” value [7] was 15.76 µg/mL. It also gave an IC50 [8] of 140 µM.
For sucralfate, the frequency of recurrence [10] is given as “low frequency of recurrence”.
For `CCCCC(C)(O)C/C=C/[C@H]1[C@H](O)CC(=O)[C@@H]1CCCCCCC(=O)OC` (mixture of isomers) [misoprostol], the “prevention of NSAID-induced gastric ulcer” value [11] is listed as “prevented the gastric ulcer induced by NSAIDs”.
In the case of `COc1ccc2[nH]c([S+]([O-])Cc3ncc(C)c(OC)c3C)nc2c1` (stereo not drawn) [omeprazole], the “effect of long-term administration to rats” value [12] is given as “caused dysplasia in epidermal cells of mucous membrane in gastrointestinal tracts”.
For `CCCCC[C@H](O)/C=C/[C@H]1[C@H](O)CC(=O)[C@@H]1C/C=C\CCCC(=O)O` [PGE2], the “prevention of experimental ulceration” value [13] is listed as “effectively prevent the experimental ulceration”.
